# Key:
# patients with RMS [1] = assay: TEMSO Phase III trial: relapses, disability progression, fatigue; assay type: in vivo, humans; settings: for Hazard ratio for teriflunomide vs placebo (12-week sustained disability progression) / Hazard ratio for teriflunomide vs placebo (relapse): Cox model; for Patients with a 12-week sustained disability progression / Patients without relapse during 108 weeks: Kaplan-Meier estimate; for Fatigue Impact scale score, LS mean change from baseline: MMRM
# Text: They were required to have a score of no more than 5.5 on the Kurtzke Expanded Disability Status Scale (EDSS), a minimum of two clinical relapses in the previous 2 years or one relapse during the preceding year, but no relapses in the 60 days before randomization. During the 4 weeks prior to randomization, patients were required to be clinically stable and have signed both the informed consent form and informed consent for HIV testing.
# (§1) A treatment neurologist at each site was responsible for evaluating patient eligibility, supervision of study medication administration, recording and treating adverse events and assessing relapses, and monitoring safety assessments. An independent examining neurologist, blinded to treatment assignment, performed all EDSS scores and functional system assessments. EDSS scores were determined at screening, baseline, every 12 weeks following baseline visit, and at unscheduled relapse visits. MRI scans were performed at baseline and Weeks 24, 48, 72 and 108, and conducted according to the study protocol; image data were collected at clinical site MRI facilities.
# For suspected relapses occurring between study visits, patients were required to attend the study site within 7 days of symptom onset for objective assessment by the examining neurologist. Relapses could be treated with intravenous corticosteroids at the investigator's discretion.
# The primary study objective was to determine the effect of teriflunomide in reducing annualized relapse rate (ARR; the number of confirmed relapses per patient-year). A relapse was defined as the appearance of a new clinical sign or symptom or clinical worsening of a previous sign or symptom that had been stable for at least 30 days and persisted for a minimum of 24 hours in the absence of fever. Confirmed relapses required an increase of 1 point in at least two functional systems, or an increase of 2 points in at least one functional system (excluding bowel/bladder and cerebral function), or an increase of 0.5 points in EDSS score (1.0 for EDSS=0) from the previous clinically stable assessment.
# (§2) The key secondary endpoint was to determine the effect of teriflunomide on delaying disability progression at Week 108 as assessed by changes in EDSS. Sustained disability progression was defined as a persisting increase from baseline of at least 1.0 point on the EDSS (or at least 0.5 for patients with a baseline EDSS score greater than 5.5) for at least 12 weeks. The key prespecified MRI endpoint was the effect of teriflunomide on burden of disease (total lesion volume). Other MRI endpoints included number of gadolinium (Gd)-enhancing T1 lesions, volume of T1 hypointense lesion components (‘black holes’), number of unique active lesions and brain atrophy. Patient-reported fatigue, assessed by the Fatigue Impact Scale (FIS), was an additional secondary endpoint.
# A sample size of 360 randomized patients per group was required to provide 95% statistical power to detect relative risk reductions (RRR) of 25% in ARR after 2 years, assuming a placebo ARR of 0.74 and standard deviation of 0.626. All analyses followed an intention-to-treat (ITT) principle and all inferential analyses were performed at the 2-sided 5% level of significance. ARR was analyzed using a Poisson regression model with robust error variance. The model included the total number of confirmed relapses as the response variable, and treatment, baseline EDSS strata, and region as covariates, and log transformed duration of treatment as offset variable.
# Disability progression was analyzed using a log-rank test with time to first disability progression as the dependent variable, treatment as test variable, and region and baseline EDSS score as strata variables. Kaplan-Meier estimates and curves of the cumulative incidence were used to assess the rate of disability progression in patients across time points. […]
# patients with RMS [2] = assay: TEMSO Phase III trial: MRI outcomes; assay type: in vivo, humans; settings: 108 weeks; for Brain parenchymal fraction, LS mean change from baseline / Brain parenchymal fraction, LS mean difference vs placebo / Brain parenchymal fraction, Relative reduction vs placebo: MMRM; for Number of Gd-enhancing T1 lesions per scan, Estimate / Number of unique active lesions per scan, Estimate: Poisson regression
# Experimental: as §1, §2
# Change from baseline in burden of disease and T1 hypointense lesion volume were analysed with a mixed-effect model with repeated measures (MMRM) using cubic root transformed data. Atrophy was analysed as change from baseline brain volume with the MMRM. The number of Gd-enhancing T1 lesions and number of unique active lesions per scan were analysed using a Poisson regression model with robust error variance. The percentage of patients free from lesions was analysed using a logistic regression model. MRI scans obtained within 14 days of systemic corticosteroid therapy were excluded from all analyses.
# The MMRM model (mixed-effect model with repeated measures) included treatment, EDSS strata, region, visit, treatment-by-visit interaction, baseline value and baseline-by-visit interaction as covariates. The percentage of patients free from lesions was analysed by a logistic regression model that included treatment, number of lesions at baseline, EDSS strata and region as covariates. The Poisson regression model included treatment, number of lesions at baseline, EDSS strata and region as covariates, and log-transformed number of scans as an offset variable. The change from baseline in fatigue impact scale (FIS) total score was analyzed using MMRM.
# [3] = 7 mg once daily oral, 108 weeks, ITT population
# [4] = 7 mg once daily oral, 108 weeks, ITT population (N = 365)
# [5] = 7 mg once daily oral, ITT population
# [6] = 14 mg once daily oral, 108 weeks, ITT population
# [7] = 14 mg once daily oral, 108 weeks, ITT population (N = 358)
# [8] = 14 mg once daily oral, ITT population
# [9] = 7 mg once daily oral vs placebo
# [10] = 7 mg once daily oral, MMRM using cubic root transformed volume data
# [11] = 14 mg once daily oral vs placebo
# [12] = 14 mg once daily oral, MMRM using cubic root transformed volume data
smiles,measurement,setting,value
"C/C(O)=C(\C#N)C(=O)Nc1ccc(C(F)(F)F)cc1 [teriflunomide, (Z)-2-cyano-3-hydroxy-but-2-enoic acid-(4′-trifluoromethylphenyl)-amide]",Hazard ratio for teriflunomide vs placebo (12-week sustained disability progression),patients with RMS [1]; [3],0.763
same,Hazard ratio for teriflunomide vs placebo (relapse),patients with RMS [1]; [3],0.756
same,Adjusted Annualized Relapse Rate,patients with RMS [1]; [3],0.370
same,Hazard ratio reduction vs placebo (disability progression),patients with RMS [1]; [3],23.7%
same,No. of relapses 0 - patients (%),patients with RMS [1]; [3],(57.8) %
same,No. of relapses 1 - patients (%),patients with RMS [1]; [3],(25.2) %
same,No. of relapses 2 - patients (%),patients with RMS [1]; [3],(13.4) %
same,No. of relapses 3 - patients (%),patients with RMS [1]; [3],(2.7) %
same,No. of relapses ≧4 - patients (%),patients with RMS [1]; [3],(0.8) %
same,Relative Reduction in Annualized Relapse rate vs placebo,patients with RMS [1]; [3],31.2%
same,No. of relapses 0 - no. of patients,patients with RMS [1]; [4],211
same,No. of relapses 1 - no. of patients,patients with RMS [1]; [4],92
same,No. of relapses 2 - no. of patients,patients with RMS [1]; [4],49
same,No. of relapses 3 - no. of patients,patients with RMS [1]; [4],10
same,No. of relapses ≧4 - no. of patients,patients with RMS [1]; [4],3
same,Patients with a 12-week sustained disability progression,patients with RMS [1]; [3],21.7%
same,"Fatigue Impact scale score, LS mean change from baseline",patients with RMS [1]; [3],2.3
same,Patients without relapse during 108 weeks,patients with RMS [1]; [5],53.7%
same,"patients who discontinued treatment due to disease progression, compared with placebo","patients with RMS [1]; 14 mg group, p=0.02",lower number
same,Hazard ratio for teriflunomide vs placebo (12-week sustained disability progression),patients with RMS [1]; [6],0.702
same,Hazard ratio for teriflunomide vs placebo (relapse),patients with RMS [1]; [6],0.719
same,Adjusted Annualized Relapse Rate,patients with RMS [1]; [6],0.369
same,No. of relapses 0 - patients (%),patients with RMS [1]; [6],(60.6) %
same,No. of relapses 1 - patients (%),patients with RMS [1]; [6],(24.0) %
same,No. of relapses 2 - patients (%),patients with RMS [1]; [6],(9.2) %
same,No. of relapses 3 - patients (%),patients with RMS [1]; [6],(4.5) %
same,No. of relapses ≧4 - patients (%),patients with RMS [1]; [6],(1.7) %
same,No. of relapses 0 - no. of patients,patients with RMS [1]; [7],217
same,No. of relapses 1 - no. of patients,patients with RMS [1]; [7],86
same,No. of relapses 2 - no. of patients,patients with RMS [1]; [7],33
same,No. of relapses 3 - no. of patients,patients with RMS [1]; [7],16
same,No. of relapses ≧4 - no. of patients,patients with RMS [1]; [7],6
same,Patients with a 12-week sustained disability progression,patients with RMS [1]; [6],20.2%
same,"Fatigue Impact scale score, LS mean change from baseline",patients with RMS [1]; [6],3.8
same,Patients without relapse during 108 weeks,patients with RMS [1]; [8],56.5%
same,Patient-reported fatigue (FIS scores),"patients with RMS [1]; all treatment groups, during the study",remained stable
same,brain atrophy from baseline vs placebo,patients with RMS [2]; 7 mg and 14 mg groups,No significant differences
same,"Number of Gd-enhancing T1 lesions per scan, Relative risk",patients with RMS [2]; [9],0.428
same,"Number of unique active lesions per scan, Relative risk",patients with RMS [2]; [9],0.523
same,"Number of Gd-enhancing T1 lesions per scan, Relative reduction vs placebo",patients with RMS [2]; 7 mg once daily oral,57.2%
same,"Number of unique active lesions per scan, Relative reduction vs placebo",patients with RMS [2]; 7 mg once daily oral,47.7%
same,"Burden of disease, Mean change from baseline",patients with RMS [2]; [5],1.308 mL
same,"Proportion of patients free from Gd-enhancing T1 lesions, %",patients with RMS [2]; [5],(51.4) %
same,"T1 hypointense lesion volume, Mean change from baseline",patients with RMS [2]; [5],0.499 mL
same,"Brain parenchymal fraction, LS mean change from baseline",patients with RMS [2]; 7 mg once daily oral,−0.003
same,"Brain parenchymal fraction, LS mean difference vs placebo",patients with RMS [2]; 7 mg once daily oral,0.001
same,"Brain parenchymal fraction, Relative reduction vs placebo",patients with RMS [2]; 7 mg once daily oral,25.0%
same,"Burden of disease, LS mean change from baseline",patients with RMS [2]; [10],0.080 mL
same,"Burden of disease, LS mean difference vs placebo",patients with RMS [2]; [10],-0.053 mL
same,"Burden of disease, Relative reduction vs placebo",patients with RMS [2]; [10],39.4%
same,"T1 hypointense lesion volume, LS mean change from baseline",patients with RMS [2]; [10],0.079 mL
same,"T1 hypointense lesion volume, LS mean difference vs placebo",patients with RMS [2]; [10],-0.016 mL
same,"T1 hypointense lesion volume, Relative reduction vs placebo",patients with RMS [2]; [10],16.7%
same,"Number of Gd-enhancing T1 lesions per scan, Estimate",patients with RMS [2]; [5],0.570
same,"Number of unique active lesions per scan, Estimate",patients with RMS [2]; [5],1.288
same,"Number of Gd-enhancing T1 lesions per scan, Relative risk",patients with RMS [2]; [11],0.196
same,"Number of unique active lesions per scan, Relative risk",patients with RMS [2]; [11],0.306
same,"Burden of disease, Mean change from baseline",patients with RMS [2]; [8],0.723 mL
same,"T1 hypointense lesion volume, Mean change from baseline",patients with RMS [2]; [8],0.331 mL
same,"Brain parenchymal fraction, LS mean change from baseline",patients with RMS [2]; 14 mg once daily oral,−0.003
same,"Brain parenchymal fraction, LS mean difference vs placebo",patients with RMS [2]; 14 mg once daily oral,0.001
same,"Brain parenchymal fraction, Relative reduction vs placebo",patients with RMS [2]; 14 mg once daily oral,25.0%
same,"Burden of disease, LS mean change from baseline",patients with RMS [2]; [12],0.043 mL
same,"Burden of disease, LS mean difference vs placebo",patients with RMS [2]; [12],-0.089 mL
same,"T1 hypointense lesion volume, LS mean change from baseline",patients with RMS [2]; [12],0.066 mL
same,"T1 hypointense lesion volume, LS mean difference vs placebo",patients with RMS [2]; [12],-0.030 mL
same,"Number of Gd-enhancing T1 lesions per scan, Estimate",patients with RMS [2]; [8],0.261
same,"Number of unique active lesions per scan, Estimate",patients with RMS [2]; [8],0.754

# Reference: patent US20130197080A1, “USE OF TERIFLUNOMIDE FOR TREATING MULTIPLE SCLEROSIS” (SANOFI, priority 2010, published 2013)
